Patent US11198673B2, “Therapeutic compounds and compositions” (eXIthera Pharmaceuticals, Inc., priority 2014, dated 2021)

Columns and labels:
human Factor XIa = molecular target: T1, human Factor XIa (Homo sapiens, UniProt P03951); experiment: Factor XIa enzyme inhibition assay (IC50, purified enzyme); format: biochemical; conditions: purified enzyme 0.25 nM, substrate 50 μM; read-out: Potency hFXIa IC50
T1 construct: Enzyme: Factor XIa; 0.25 μM in 50% glycerol (20 μg/mL)
Procedure: (§1) • Assay buffer: 20 mM Hepes, pH 7.4; 150 mM NaCl; 0.02% Tween 20 • Compounds: 10 mM stocks in DMSO • Substrate: 20 mM Glp-Pro-Arg-AMC, 25 mg/2.3 mL H2O (store at +4° C.) [Factor XIa, thrombin, and trypsin] • 20 mM Pro-Phe-Arg-AMC (Bachem I-1295), 25 mg/2.2 mL H2O (store at +4° C.) [Factor Xa] • Enzyme: Factor XIa; 0.25 μM in 50% glycerol (20 μg/mL) • Trypsin; 0.2 μM in 50% glycerol (4.8 μg/mL) • Thrombin; 0.2 μM in 50% glycerol (7.34 μg/mL) • Factor Xa; 0.2 μM in 50% glycerol (9.2 μg/mL) • These stocks are aliquoted ([…]) and stored at −20° C. Methods: • 1. Dilute the substrate to 100 μM in assay buffer (30 μL/6 mL). The enzyme is diluted to 0.5 nM just prior to use (12 μL/6 mL for Factor XIa; 15 μL/6 mL for all of the rest.) • 2. Pipette 50 μL of substrate into each well of the 96 well (12×8) microtiter plate. (Column 1 is used as the 100% activity control and receives no compound, and Column 12 is the blank and receives no enzyme.) Add an additional 46 μL to column 2. • 3. Pipette 4 μL of each compound into the appropriate well in column 2 of the plate (unknowns assayed in triplicate, standard assayed in duplicate). The final compound concentration will be 1/50th of the stock. • 4. Serially two-fold dilute the compound by mixing the sample in column 2, removing 50 μL to the next well (column 3), mix and remove to column 4, etc. until column 11. After mixing column 11, remove 50 μL and discard. • 5. Pipette 50 μL of buffer into column 12. Initiate the reaction by adding 50 μL of enzyme solution to each well of columns 1-11 as rapidly as possible. • 6. Read the plate in a spectrophotometer (SpectraMax) at 30° C., wherein each well is measured every 60 s for 30 min. For Factor Xa assays, each well is measured every 1 min for a total of 60 min. • 7. For Factor XIa assays, the compounds are assayed, in duplicate, at 3 different starting concentrations, 20, 2, and 0.2 μM; 1:10, 1:100, and 1:1000 dil'n of 10 mM stock. All data sets are combined for graphing and data fitting. • 8. Data can be used both for estimation of IC50 and for estimation of Kon.
Potential inhibitors of Factor XIa were evaluated using the following assay.
S-2366, pyroGlu-Pro-Arg-7-methylaminocourin (AMC), available from CPC Scientific, Inc., is based on the substrate pyro-Glu-Pro-Arg-pNA, available from Diapharma Group, Inc. (Columbus, Ohio), where the p-nitroanaline group is replaced with 7-methylaminocoumarin (AMC).
The final concentration of the substrate in the assay was 50 μM, and the final concentration of the enzyme was 0.25 nM. Inhibitors were tested by serial dilution over an appropriate range to yield a dose response curve for determination of the inhibitors' IC50 value. The assay mixture was read every minute for 30 minutes in order to generate progress curves. The plates were read in a Spectramax m5 Multimode Plate Reader (Molecular Devices LLC, Sunnyvale, Calif.). Dose response curves were fit to Equation 1 below in which A is the maximum inhibition, B is the minimum inhibition, C is the IC50, and D is the Hill coefficient. [(A−B)/(1+(X/C)^D)]+B (Equation 1)

Trypsin = experiment: Dose response assay for protease inhibitors: trypsin (FXIa fold selectivity); format: biochemical; conditions: fold selectivity for FXIa over trypsin
Procedure: as §1

Thrombin = molecular target: T2, Thrombin (Homo sapiens, UniProt P00734); experiment: Dose response assay for protease inhibitors: thrombin (FXIa fold selectivity); format: biochemical; conditions: fold selectivity for FXIa over thrombin
T2 construct: Thrombin; 0.2 μM in 50% glycerol (7.34 μg/mL)
Procedure: as §1

Factor Xa = molecular target: T3, Factor Xa (Homo sapiens, UniProt P00742); experiment: Dose response assay for protease inhibitors: Factor Xa (FXIa fold selectivity); format: biochemical; conditions: fold selectivity for FXIa over Factor Xa
T3 construct: Factor Xa; 0.2 μM in 50% glycerol (9.2 μg/mL)
Procedure: as §1

[1] = β-Lactam stability in rat plasma; format: in vitro ADME; conditions: normal rat plasma, room temperature; read-out: Rat Plasma Stability (T1/2; min)
Procedure: Normal rat plasma, stored at −80° C.
• 1. Place 6 μL of each compound into 0.5 mL microcentrifuge tubes or 96-well U-bottom, polypropylene microtiter plate • 2. Place 40 μL of acetonitrile (AcN) into 0.5 mL microcentrifuge tubes labeled 1-9 • 3. Add 114 μL of plasma to each compound • 4. Sample 10 μL of compound/plasma into AcN at 2, 10, 20, 30, 60, 90, 120, 240, and 480 min of incubation at room temperature • 5. Mix each time point after adding sample and place on ice. • 6. Centrifuge time points (12,000 rpm, 3 min), remove 15 μL of the supernatant and mix with 15 μL 0.1% TFA in a V-bottom microtiter plate. • 7. Place microtiter plate in autosampler of HPLC and analyze on Restek Pinnacle C18 column (2.1×100 mm). • 8. Generate extracted ion chromatogram for parent compound and parent compound+18 (H2O). Integrate extracted ion chromatograms (EIC) and plot % total peak area for parent and adduct versus time. Fit to a model of single phase exponential decay [Y=A0*exp(−k*x)+C]. T½ is equal to ln(2)/k.

T1 sequence (P03951 388-625 limits assumed): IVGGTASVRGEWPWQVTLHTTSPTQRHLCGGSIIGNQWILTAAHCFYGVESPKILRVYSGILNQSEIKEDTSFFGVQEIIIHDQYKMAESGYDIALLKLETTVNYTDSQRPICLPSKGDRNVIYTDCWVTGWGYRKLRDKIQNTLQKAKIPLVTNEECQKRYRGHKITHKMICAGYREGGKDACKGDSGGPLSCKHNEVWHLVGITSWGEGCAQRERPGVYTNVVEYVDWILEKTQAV
T1 sequence (P03951 19-387 partner limits assumed): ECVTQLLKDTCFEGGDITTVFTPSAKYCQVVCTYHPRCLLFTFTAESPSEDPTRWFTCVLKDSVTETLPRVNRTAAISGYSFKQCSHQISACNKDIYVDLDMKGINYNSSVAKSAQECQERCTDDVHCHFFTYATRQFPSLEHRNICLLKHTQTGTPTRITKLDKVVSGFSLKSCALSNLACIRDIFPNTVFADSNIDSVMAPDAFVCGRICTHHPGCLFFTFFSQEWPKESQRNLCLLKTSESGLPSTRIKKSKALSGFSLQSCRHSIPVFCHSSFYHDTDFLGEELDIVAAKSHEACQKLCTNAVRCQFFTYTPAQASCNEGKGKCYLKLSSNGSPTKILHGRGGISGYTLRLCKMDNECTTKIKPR
T3 sequence (P00742 235-488 limits assumed): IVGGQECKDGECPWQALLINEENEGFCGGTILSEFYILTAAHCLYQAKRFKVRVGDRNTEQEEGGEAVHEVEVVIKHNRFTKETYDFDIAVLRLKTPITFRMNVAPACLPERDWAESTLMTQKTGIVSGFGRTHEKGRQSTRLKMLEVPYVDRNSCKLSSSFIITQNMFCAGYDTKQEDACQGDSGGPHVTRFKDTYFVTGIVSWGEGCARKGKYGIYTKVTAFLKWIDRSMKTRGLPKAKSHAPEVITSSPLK
T3 sequence (P00742 41-179 partner limits assumed): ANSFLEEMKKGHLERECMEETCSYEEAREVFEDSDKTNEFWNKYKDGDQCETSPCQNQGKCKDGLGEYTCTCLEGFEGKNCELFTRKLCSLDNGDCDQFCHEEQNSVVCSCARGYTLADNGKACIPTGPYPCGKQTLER

Row | IC50 (human Factor XIa) | FXIa Fold Selectivity Thrombin (Thrombin) | FXIa Fold Selectivity FXa (Factor Xa) | half-life [1] | SMILES | FXIa Fold Selectivity Trypsin (Trypsin)
1 | < 10 nM | G (“G” indicates 1-500) | G (“G” indicates 1-500) |  | C[C@@H](NC(=O)N1C(=O)[C@H](Cc2ccnc(N)c2)[C@H]1C(=O)OCc1ccccc1)c1ccccc1 [Example 1] | G (“G” indicates 1-500)
2 | > 1000 nM | G (“G” indicates 1-500) |  | > 1.67 h | COC(=O)[C@@H]1[C@@H](Cc2ccc(Cl)s2)C(=O)N1C(=O)N[C@H](C)c1ccccc1 [Example 2] | G (“G” indicates 1-500)
3 | < 10 nM | H (“H” indicates 500-1000) | I (“I” indicates >1000) | > 1.67 h | NC(=O)[C@@H]1[C@@H](Cc2ccnc(N)c2)C(=O)N1C(=O)NC(c1ccccc1)c1ccccc1 [Example 22] | I (“I” indicates >1000)
4 | 100 to 1000 nM | G (“G” indicates 1-500) | G (“G” indicates 1-500) |  | Nc1ncc(C[C@H]2C(=O)N(C(=O)NC(c3ccccc3)c3ccccc3)[C@@H]2C(=O)O)s1 [Example 23] | G (“G” indicates 1-500)
5 | > 1000 nM | G (“G” indicates 1-500) |  |  | C[C@@H](NC(=O)N1C(=O)[C@H](Cc2cnc(N)s2)[C@H]1C(=O)O)c1ccccc1 [Example 24] | G (“G” indicates 1-500)
6 | 100 to 1000 nM | G (“G” indicates 1-500) | G (“G” indicates 1-500) |  | Nc1cc(CC[C@H]2C(=O)N(C(=O)NC(c3ccccc3)c3ccccc3)[C@@H]2C(=O)O)ccn1 [Example 25] | G (“G” indicates 1-500)
7 | 10 to 100 nM | G (“G” indicates 1-500) | H (“H” indicates 500-1000) | < 1.67 h | Nc1cc(C[C@H]2C(=O)N(C(=O)NC(c3ccccc3)c3ccccc3)[C@@H]2Oc2ccccc2)ccn1 [Example 27] | G (“G” indicates 1-500)
8 | 10 to 100 nM | I (“I” indicates >1000) | I (“I” indicates >1000) | < 1.67 h | N#C[C@@H]1[C@@H](Cc2ccnc(N)c2)C(=O)N1C(=O)NC(c1ccccc1)c1ccccc1 [Example 28] | G (“G” indicates 1-500)
9 | < 10 nM | I (“I” indicates >1000) | I (“I” indicates >1000) | > 1.67 h | COc1cccc([C@@H](C)NC(=O)N2C(=O)[C@H](Cc3ccnc(N)c3)[C@H]2C(=O)O)c1 [Example 29] | G (“G” indicates 1-500)
10 | 100 to 1000 nM | G (“G” indicates 1-500) | G (“G” indicates 1-500) | > 1.67 h | Nc1cc(C[C@H]2C(=O)N(C(=O)NCC(c3ccccc3)c3ccccc3)[C@@H]2C(=O)O)ccn1 [Example 31] | G (“G” indicates 1-500)
11 | 10 to 100 nM | G (“G” indicates 1-500) | G (“G” indicates 1-500) | > 1.67 h | CC(C)[C@@H](C)NC(=O)N1C(=O)[C@H](Cc2ccnc(N)c2)[C@H]1C(=O)O [Example 32] | G (“G” indicates 1-500)
12 | > 1000 nM | G (“G” indicates 1-500) | F (“F” indicates <1) | > 1.67 h | CCO[C@@H]1[C@@H](Cc2ccnc(N)c2)C(=O)N1C(=O)NC(c1ccccc1)c1ccccc1 [Example 33] | G (“G” indicates 1-500)
13 | < 10 nM | I (“I” indicates >1000) | I (“I” indicates >1000) | < 1.67 h | C[C@@H](NC(=O)N1C(=O)[C@H](Cc2ccnc(N)c2)[C@H]1C#N)c1ccccc1 [Example 34] | G (“G” indicates 1-500)
14 | 100 to 1000 nM | G (“G” indicates 1-500) | G (“G” indicates 1-500) | < 1.67 h | CS(=O)(=O)[C@@H]1[C@@H](Cc2ccnc(N)c2)C(=O)N1C(=O)NC(c1ccccc1)c1ccccc1 [Example 35] | G (“G” indicates 1-500)
15 | < 10 nM | I (“I” indicates >1000) | I (“I” indicates >1000) |  | CC[C@@H](NC(=O)N1C(=O)[C@H](Cc2ccnc(N)c2)[C@H]1C(=O)O)c1ccccc1 [Example 36] | G (“G” indicates 1-500)
16 | < 10 nM | I (“I” indicates >1000) | H (“H” indicates 500-1000) |  | C[C@@H](NC(=O)N1C(=O)[C@H](Cc2ccnc(N)c2)[C@H]1C(=O)O)c1ccc(F)cc1 [Example 37] | I (“I” indicates >1000)
17 | 100 to 1000 nM | G (“G” indicates 1-500) | G (“G” indicates 1-500) | < 1.67 h | C[C@@H](NC(=O)N1C(=O)[C@H](Cc2ccnc(N)c2)[C@H]1S(C)(=O)=O)c1ccccc1 [Example 39] | G (“G” indicates 1-500)
18 | 10 to 100 nM | G (“G” indicates 1-500) | I (“I” indicates >1000) |  | CCOC(=O)[C@@H]1[C@@H](Cc2ccnc(N)c2)C(=O)N1C(=O)NC(c1ccccc1)c1ccccc1 [Example 46] | G (“G” indicates 1-500)
19 | 10 to 100 nM | I (“I” indicates >1000) | H (“H” indicates 500-1000) |  | C[C@@H](NC(=O)N1C(=O)[C@H](Cc2ccnc(N)c2)[C@H]1C(=O)O)c1cccnc1 [Example 54] | G (“G” indicates 1-500)
20 | 10 to 100 nM |  |  | < 1.67 h | CC(=O)OCOC(=O)[C@@H]1[C@@H](Cc2ccnc(NC(=O)OCOC(=O)C(C)C)c2)C(=O)N1C(=O)N[C@H](C)c1ccc2c(c1)OC(F)(F)O2 [Example 180] | 

Row | SMILES | IC50 (human Factor XIa) | FXIa Fold Selectivity Thrombin (Thrombin) | FXIa Fold Selectivity FXa (Factor Xa) | half-life [1] | FXIa Fold Selectivity Trypsin (Trypsin)
21 | C[C@@H](NC(=O)N1C(=O)[C@H](Cc2ccnc(N)c2)[C@H]1C(N)=O)c1ccccc1 [Example 26] | < 10 nM | I (“I” indicates >1000) | H (“H” indicates 500-1000) | < 1.67 h | I (“I” indicates >1000)
